The text below walks through data of paper PMC6112376, “Comprehensive Analyses and Prioritization of Tox21 10K Chemicals Affecting Mitochondrial Function by in-Depth Mechanistic Studies” (Environmental Health Perspectives, 2018).

A word on the IC50: it is the concentration at which inhibition is half-maximal.

Data set [1] relates to rat primary hepatocytes. As to the kind of experiment: MMP assay in rat primary hepatocytes. The following applies: for IC50: read-out: MMP assays IC50 (µM) Rat Hepatocytes.
The subject of data set [2] is HepG2 cells. The following applies: for IC50: read-out: MMP assays IC50 (µM) HepG2.
Data set [3] deals with HepG2 cells. The following applies: cited from earlier work.
Where [4] appears, read: rat hepatocytes, mean ± SD of three experiments.
Where [5] appears, read: HepG2 cells, single number from one experiment.
[6] abbreviates: read-out: MMP assays IC50 (µM) qHTS-HepG2.
Where [7] appears, read: read-out: MMP assays IC50 (µM), qHTS-HepG2.

Like-named read-outs stand apart in the source and are kept apart here.

Take `CCN=C1C=CC(=C(c2ccc(N(CC)CC)cc2)c2ccc(N(CC)CC)cc2)c2ccccc21.Cl` [Basic blue 7]: in data set [1] (setting [4]), the “MMP assays efficacy (%) Rat Hepatocytes” value was -79±39% and the concentration for half-maximal inhibition (IC50) turned out to be 1.53 ± 1.42 µM. In data set [2] (setting [5]), the “MMP assays efficacy (%) HepG2” value was -78% and the concentration for half-maximal inhibition (IC50) worked out at 0.05 µM. In data set [3], the “MMP assays efficacy (%) qHTS-HepG2” value is -87±17%. Moreover, the IC50 in data set [3] (setting [6]) was 0.02 ± 0.03 µM.
Turning to `c1ccc2c(c1)OCC(C1=NCCN1)O2` (stereo not shown) [Idazoxan], in data set [1] (setting [4]), the “MMP assays IC50 (µM) Rat Hepatocytes” value was “inactive” and the “MMP assays efficacy (%) Rat Hepatocytes” value is “inactive”. Also, in data set [2] (setting [5]), the “MMP assays IC50 (µM) HepG2” value was “inactive” and the “MMP assays efficacy (%) HepG2” value is “inactive”. For the same compound, the “MMP assays efficacy (%) qHTS-HepG2” value in data set [3] was -60±9%. Moreover, the 50% inhibitory concentration (IC50) in data set [3] (setting [7]) is 20.6 ± 7.46 µM.
Turning to `CCn1c2ccccc2c2cc(N)ccc21.Cl` [3-Amino-9-ethylcarbazole hydrochloride], in data set [1] (setting [4]), the “MMP assays efficacy (%) Rat Hepatocytes” value was -53±23% and the half-inhibitory concentration (IC50) came to 56.2 µM. In data set [2] (setting [5]), the “MMP assays efficacy (%) HepG2” value is given as -38% and the IC50 amounted to 14.1 µM. The “MMP assays efficacy (%) qHTS-HepG2” value in data set [3] is -93±11%. Also, the IC50 in data set [3] (setting [6]) was 35.4 ± 24.5 µM.
On to `Cc1cc(C(C)(C)C)c(O)c(C)c1Cn1c(=O)n(Cc2c(C)cc(C(C)(C)C)c(O)c2C)c(=O)n(Cc2c(C)cc(C(C)(C)C)c(O)c2C)c1=O`, for which, in data set [1] (setting [4]), the “MMP assays efficacy (%) Rat Hepatocytes” value is -40±24% and the IC50 worked out at 26.8 ± 25.3 µM. For the same compound, in data set [2] (setting [5]), the “MMP assays efficacy (%) HepG2” value is -82% and the IC50 stood at 44.7 µM. Besides, the “MMP assays efficacy (%) qHTS-HepG2” value in data set [3] is -98±4%. Further, the IC50 in data set [3] (setting [6]) is 12.2 ± 2.84 µM.
Turning to `Cl.O=C1CSC2(CCN(CCCN3c4ccccc4Sc4ccc(Cl)cc43)CC2)N1` [Spiclomazine hydrochloride], in data set [1] (setting [4]), the “MMP assays IC50 (µM) Rat Hepatocytes” value is “inactive” and the “MMP assays efficacy (%) Rat Hepatocytes” value is “inactive”. In addition, in data set [2] (setting [5]), the “MMP assays IC50 (µM) HepG2” value is “inactive” and the “MMP assays efficacy (%) HepG2” value is “inactive”. For the same compound, the “MMP assays efficacy (%) qHTS-HepG2” value in data set [3] is reported as -107±11%. Moreover, the IC50 in data set [3] (setting [7]) was 34.8 ± 2.36 µM.
Consider `C[C@H]1C[C@H]2[C@@H]3CCC4=CC(=O)C=C[C@]4(C)[C@@]3(F)[C@@H](O)C[C@]2(C)[C@@]1(O)C(=O)CCl` [Clobetasol], for which, in data set [1] (setting [4]), the “MMP assays efficacy (%) Rat Hepatocytes” value is -64±43% and the IC50 stood at 19.8 ± 15.6 µM. In addition, in data set [2] (setting [5]), the “MMP assays efficacy (%) HepG2” value is -87% and the IC50 is 17.3 µM. Also, in data set [3], the “MMP assays efficacy (%) qHTS-HepG2” value is -91±13%. The IC50 in data set [3] (setting [6]) is 14.4 ± 3.67 µM.
For the compound `CC(C)(C)OC(=O)c1ccc(O)cc1` [tert-Butyl 4-hydroxybenzoate], the “MMP assays efficacy (%) Rat Hepatocytes” value in data set [1] (setting [4]) is on record as -80±10%. Moreover, the IC50 in data set [1] (setting [4]) is 50.8 ± 9.48 µM; in data set [2] (setting [5]), 35.5 µM; in data set [3] (setting [7]), 25.3 ± 7.32 µM. For the same compound, in data set [2] (setting [5]), the “MMP assays efficacy (%) HepG2” value is -105%. Further, the “MMP assays efficacy (%) qHTS-HepG2” value in data set [3] was -99±24%.
Regarding `Cc1cc(C(=C2C=CC(=N)C=C2)c2ccc(N)cc2)ccc1N` [C.I. Basic violet 14], in data set [1] (setting [4]), the “MMP assays efficacy (%) Rat Hepatocytes” value is on record as -71±37% and the IC50 came out at 6.84 ± 4.71 µM. Moreover, in data set [2] (setting [5]), the “MMP assays efficacy (%) HepG2” value is reported as -96% and the IC50 came out at 0.87 µM. The “MMP assays efficacy (%) qHTS-HepG2” value in data set [3] is -87±10%. Further, the IC50 in data set [3] (setting [6]) was 0.18 ± 0.16 µM.
For Bis(tributyltin)oxide, in data set [1], the “MMP assays IC50 (µM) Rat Hepatocytes” value is “inactive”. For the same compound, in data set [2], the “MMP assays efficacy (%) HepG2” value is given as -98% and the half-maximal inhibitory concentration (IC50) came out at 0.31 µM. In addition, the “MMP assays efficacy (%) qHTS-HepG2” value in data set [3] was -112±4%. Also, the IC50 in data set [3] (setting [6]) was 0.09 ± 0.02 µM.
As for Dodecylphenol, in data set [1] (setting [4]), the “MMP assays efficacy (%) Rat Hepatocytes” value is -59±7% and the IC50 amounted to 41.1 ± 13.2 µM. In data set [2] (setting [5]), the “MMP assays efficacy (%) HepG2” value is -100% and the IC50 turned out to be 3.16 µM. Further, the IC50 in data set [3] (setting [6]) is 3.1 ± 1.22 µM.
Turning to `O=C(c1ccccc1)c1cc(Cl)ccc1O`, the “MMP assays efficacy (%) Rat Hepatocytes” value in data set [1] (setting [4]) is recorded as -59±21%. Besides, the IC50 is 25.4 ± 21.3 µM in data set [1] (setting [4]), 39.8 µM in data set [2] (setting [5]) and 29.1 ± 3.36 µM in data set [3] (setting [6]). The “MMP assays efficacy (%) HepG2” value in data set [2] (setting [5]) is listed as -98%. The “MMP assays efficacy (%) qHTS-HepG2” value in data set [3] is -85±12%.
On to `CC(C)(c1cc(Br)c(O)c(Br)c1)c1cc(Br)c(O)c(Br)c1` [3,3φ,5,5φ-Tetrabromobisphenol A], for which, in data set [1] (setting [4]), the “MMP assays efficacy (%) Rat Hepatocytes” value was -76±30% and the IC50 came out at 36.9 ± 12.6 µM. In data set [2] (setting [5]), the “MMP assays efficacy (%) HepG2” value was -98% and the IC50 was 17.8 µM. Moreover, in data set [3], the “MMP assays efficacy (%) qHTS-HepG2” value is on record as -123±2%. The 50% inhibitory concentration (IC50) in data set [3] (setting [6]) is 13.2 ± 12.2 µM.
Turning to `COC(=O)C1=C(C)NC(C)=C(C(=O)O[C@@H]2CCCN(Cc3ccccc3)C2)[C@@H]1c1cccc([N+](=O)[O-])c1.Cl` (racemic) [rac Benidipine hydrochloride], in data set [1] (setting [4]), the “MMP assays IC50 (µM) Rat Hepatocytes” value was “inactive” and the “MMP assays efficacy (%) Rat Hepatocytes” value was “inactive”. For the same compound, in data set [2] (setting [5]), the “MMP assays efficacy (%) HepG2” value is listed as -89% and the IC50 worked out at 30.8 µM. Besides, the “MMP assays efficacy (%) qHTS-HepG2” value in data set [3] is listed as -93±18%. Also, the 50% inhibitory concentration (IC50) in data set [3] (setting [7]) is 15 ± 3.18 µM.
